By EC50 is commonly meant the concentration giving half of the maximal effect. Lower therefore signals an effect from little substance.

Consider four molecules from patent US20090105259A1, “Acyclic 1,4-Diamines and Uses Thereof” (priority 2005, published 2009).

Molecules are shown by their SMILES.

For experiment [1], the target named is T1, TRPV4 channel receptors (Homo sapiens, UniProt Q9HBA0).
T1 construct: obtained using this method in human articular chondrocytes; endogenous in cells; host or cells: human articular chondrocytes
T1 sequence (Q9HBA0 whole entry): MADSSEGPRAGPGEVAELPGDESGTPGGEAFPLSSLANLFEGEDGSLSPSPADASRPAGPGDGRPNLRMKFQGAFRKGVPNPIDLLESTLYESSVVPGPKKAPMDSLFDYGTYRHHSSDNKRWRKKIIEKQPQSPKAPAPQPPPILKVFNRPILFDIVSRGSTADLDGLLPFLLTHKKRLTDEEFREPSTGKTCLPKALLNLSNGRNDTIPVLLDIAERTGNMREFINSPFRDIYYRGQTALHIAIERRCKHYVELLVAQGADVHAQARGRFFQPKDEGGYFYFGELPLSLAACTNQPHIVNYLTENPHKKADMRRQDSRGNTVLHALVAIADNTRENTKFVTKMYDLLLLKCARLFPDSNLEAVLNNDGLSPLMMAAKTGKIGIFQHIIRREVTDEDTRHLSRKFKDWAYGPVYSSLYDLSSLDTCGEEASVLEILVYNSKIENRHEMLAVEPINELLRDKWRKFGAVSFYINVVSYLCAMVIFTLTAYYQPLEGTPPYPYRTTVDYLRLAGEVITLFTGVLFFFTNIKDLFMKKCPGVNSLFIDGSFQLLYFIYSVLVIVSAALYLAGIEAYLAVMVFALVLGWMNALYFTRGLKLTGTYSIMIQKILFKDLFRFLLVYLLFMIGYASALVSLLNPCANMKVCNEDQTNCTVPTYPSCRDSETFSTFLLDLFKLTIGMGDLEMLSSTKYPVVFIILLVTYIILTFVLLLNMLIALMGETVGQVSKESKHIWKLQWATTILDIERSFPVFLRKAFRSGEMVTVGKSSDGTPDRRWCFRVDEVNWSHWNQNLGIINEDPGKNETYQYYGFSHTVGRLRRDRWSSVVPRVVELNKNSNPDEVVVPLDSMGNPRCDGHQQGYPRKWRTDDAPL
In words: Ca2+ influx through TRPV4 channel receptors, Fura-2 fluorescence on FlexStation, human articular chondrocytes. The note with it: Fura-2, FlexStation. The experiment is classed as cell-based. From the text:
(§1) Ca^2+ influx mediated through TRPV4 channel receptors can be measured using articular chondrocytes from such species as, but not limited to, human, rat, canine, rabbit, monkey, and bovine, using standard techniques in the art such as, but not limited to, Fura-2 (Invitrogen/Molecular Probes, Eugene, Oreg.) fluorescence using a FlexStation (manufactured by Molecular Devices, Sunnyvale, Calif.). Table 1 lists biological data for several representative compounds obtained using this method in bovine articular chondrocytes.
Table 2 lists biological data for several representative compounds obtained using this method in human articular chondrocytes.
(§2) All exemplary compounds of the present invention were assessed using at least one of the biological assays presented above. Compounds presented in the Examples had EC50 values of about 0.01 μM to 10 μM as measured by Flex Station using bovine and/or human articular chondrocytes.

Experiment [2] has as its target T2, TRPV4 channel receptors (Bos taurus, UniProt A0A8F4X677).
T2 construct: obtained using this method in bovine articular chondrocytes; endogenous in cells; host or cells: bovine articular chondrocytes
Description: Ca2+ influx through TRPV4 channel receptors, Fura-2 fluorescence on FlexStation, bovine articular chondrocytes. The experiment is classed as cell-based. The note with it: Fura-2, FlexStation.
From the text: as §1, §2

T2 sequence (A0A8F4X677 1-871): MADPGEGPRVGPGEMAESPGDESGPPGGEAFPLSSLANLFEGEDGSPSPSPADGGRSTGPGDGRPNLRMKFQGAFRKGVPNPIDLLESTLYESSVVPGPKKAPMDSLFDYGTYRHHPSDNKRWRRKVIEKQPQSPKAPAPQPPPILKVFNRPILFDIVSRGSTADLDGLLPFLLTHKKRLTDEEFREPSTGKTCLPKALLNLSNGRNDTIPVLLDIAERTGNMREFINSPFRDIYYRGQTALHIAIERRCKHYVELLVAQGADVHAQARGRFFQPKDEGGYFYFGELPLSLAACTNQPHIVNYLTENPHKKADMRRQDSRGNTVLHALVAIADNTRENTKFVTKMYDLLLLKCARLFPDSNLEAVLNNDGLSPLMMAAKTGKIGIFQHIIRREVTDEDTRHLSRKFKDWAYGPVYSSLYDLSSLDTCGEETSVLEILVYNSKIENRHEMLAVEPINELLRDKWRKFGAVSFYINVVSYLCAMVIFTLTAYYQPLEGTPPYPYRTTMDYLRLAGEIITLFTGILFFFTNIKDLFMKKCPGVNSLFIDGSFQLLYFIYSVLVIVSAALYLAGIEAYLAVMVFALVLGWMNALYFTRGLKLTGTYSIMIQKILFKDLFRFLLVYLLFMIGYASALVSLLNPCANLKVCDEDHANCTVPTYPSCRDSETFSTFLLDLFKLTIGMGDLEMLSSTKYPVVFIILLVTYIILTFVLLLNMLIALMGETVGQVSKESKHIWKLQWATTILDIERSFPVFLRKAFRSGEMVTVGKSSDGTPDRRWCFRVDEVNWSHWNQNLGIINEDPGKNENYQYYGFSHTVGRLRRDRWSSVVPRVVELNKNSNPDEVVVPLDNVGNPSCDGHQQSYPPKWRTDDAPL

In turn, `Cc1c(C(=O)N[C@@H](CC(C)C)C(=O)NCCCCNS(=O)(=O)c2ccc(Cl)cc2Cl)oc2cccnc12` [Example 6, N-((1S)-1-{[(4-{[(2,4-Dichlorophenyl)sulfonyl]amino}butyl)amino]carbonyl}-3-methylbutyl)-3-methylfuro[3,2-b]pyridine-2-carboxamide] came in with an EC50 on TRPV4 channel receptors [1] of 100 to 1000 nM.

On TRPV4 channel receptors [1], `CC(C)C[C@H](NC(=O)c1nc2ccccc2s1)C(=O)NCCCCNS(=O)(=O)c1ccc(F)cc1Cl` [Example 50, N-((1S)-1-{[(4-{[(2-Chloro-4-fluorophenyl)sulfonyl]amino}butyl)amino]carbonyl}-3-methylbutyl)-1,3-benzothiazole-2-carboxamide] had a 50% effective concentration (EC50) of 1000 to 10000 nM.

`CC(C)C[C@H](NC(=O)c1cc2ccccc2s1)C(=O)NCCCCNS(=O)(=O)c1ccc(F)cc1Cl` [Example 5, N-((1S)-1-{[(4-{[(2-Chloro-4-fluorophenyl)sulfonyl]amino}butyl)amino]carbonyl}-3-methylbutyl)-1-benzothiophene-2-carboxamide] had a half-maximal effective concentration (EC50) on TRPV4 channel receptors [2] of 70 to 100 nM.

`CC(C)C[C@H](NC(=O)c1cc2ccccc2s1)C(=O)NCCCCNS(=O)(=O)c1ccc(Br)cc1Cl` [Example 3, N-((1S)-1-{[(4-{[(4-Bromo-2-chlorophenyl)sulfonyl]amino}butyl)amino]carbonyl}-3-methylbutyl)-1-benzothiophene-2-carboxamide]: the half-maximal effective concentration (EC50) lay in the range of 30 to 60 nM at TRPV4 channel receptors [2] and 30 to 90 nM on TRPV4 channel receptors [1].
